Laboratory results from US6670381B2, “Benzamide derivatives as thrombin inhibitors” (SmithKline Beecham Corporation, priority 1998, dated 2003).

What was measured:
[1] = target: human α-thrombin (Homo sapiens, UniProt P00734); assay: Thrombin inhibitory activity, chromogenic assay; assay type: biochemical; details: substrate N-p-tosyl-gly-pro-lys p-nitroanilide 100 μM, thrombin 1 nM, pH 7.4, room temperature
Method: All dilutions were made in a buffer consisting of: 50 mM HEPES, 150 mM NaCl, 5 mM CaCl2, 0.1% PEG and at pH 7.4. Briefly, the substrate (final conc. of 100 μM) was added to thrombin (final conc. of 1 nM) and the reaction monitored for 10 mins at 405 nm using a Biotek EL340 plate reader; the assay was performed at room temperature. To obtain IC50s the data were analyzed using Kineticalc™ and processed using ActivityBase™ to obtain the IC50 value.

[2] = test system: human plasma; assay: APTT (activated partial thromboplastin time), clotting time of human plasma in vitro; assay type: biochemical; details: pooled citrated human plasma; for APTT: concentration of compound to extend the normal APTT by 1.5×: 1.5× extension of clotting time; for APTT: degree of extension (ratio of clotting times in presence or absence of compound): at 100 nM compound
Method: Pooled citrated (0.38% trisodium citrate w/v) plasma was prepared from blood taken from healthy volunteers and stored at −70° C. The APTT tests were performed using a Thrombtrack 4 from Nycomed. Actin reagent (a reconstituted extract from dehydrated rabbit brain, also containing ellagic acid) was obtained from Baxter Healthcare Corporation USA. Briefly, citrated plasma was added to either compound or distilled water followed by addition of actin reagent. These were then mixed for 2 min at 37° C. before adding calcium chloride to initiate clotting. Compounds extended the normal clotting time, which is in the range 30-35 seconds, to varying degrees depending on their concentrations. The degrees of extension of the APTT was calculated by the ratio of clotting times in presence or absence of compound. The concentration of a compound to extend the ‘normal’ APTT by 1.5× was used as a criterion for comparing the anti-coagulant activities of compounds.

| IC50 [1] [nM] | SMILES | APTT: concentration of compound to extend the normal APTT by 1.5× [2] | APTT: degree of extension (ratio of clotting times in presence or absence of compound) [2] |
| --- | --- | --- | --- |
| 3 | Cc1cc(OC[C@H](C)Nc2ccncc2)cc(C(=O)N(C)C(C)C)c1 [Example 3, N-Isopropyl-3,N-dimethyl-5-[2S-(pyridin-4-ylamino)-propoxy]-benzamide] | 90 (1.5×) nM | – |
| 3.4 | CCCN(C(=O)c1cc(Cl)cc(OC[C@H](C)Nc2ccncc2)c1)C(C)C [Example 10, 3-Chloro-N-isopropyl-N-propyl-5-[2S-(pyridin-4-ylamino)-propoxy]-benzamide] | – | 100 (1.28×) |
| 1.5 | CCCN(CC)C(=O)c1cc(C)cc(OC[C@H](C)Nc2ccncc2)c1 [Example 6, N-Ethyl-3-methyl-N-propyl-5-[2S-(pyridin-4-ylamino)-propoxy]-benzamide] | 120 (1.5×) nM | – |
| 5 | CCCN(C)C(=O)c1cc(C)cc(OC[C@H](C)Nc2ccncc2)c1 [Example 4, 3,N-Dimethyl-N-propyl-5-[2S-(pyridin-4-ylamino)-propoxy]-benzamide] | 97 (1.5×) nM | – |
| < 1 | Cc1cc(OC[C@H](C)Nc2ccncc2)cc(C(=O)N(C(C)C)C2CCCCC2)c1 [Example 8, N-Cyclohexyl-N-isopropyl-3-methyl-5-[2S-(pyridin-4-ylamino)-propoxy]-benzamide] | – | 100 (1.32×) |
| < 1 | CCCN(CCC)C(=O)c1cc(C)cc(OC[C@H](C)Nc2ccncc2)c1 [Example 5, 3-Methyl-N,N-dipropyl-5-[2S-(pyridin-4-ylamino)-propoxy]-benzamide] | 110 (1.5×) nM | – |
| < 1 | CCCN(C(=O)c1cc(C)cc(OC[C@H](C)Nc2ccncc2)c1)C(C)C [Example 9, N-Isopropyl-3-methyl-N-propyl-5-[2S-(pyridin-4-ylamino)-propoxy]-benzamide] | 60 (1.5×) nM | – |
| < 1 | CCCCN(CCC)C(=O)c1cc(C)cc(OC[C@H](C)Nc2ccncc2)c1 [Example 7, N-Butyl-3-methyl-N-propyl-5-[2S-(pyridin-4-ylamino)-propoxy]-benzamide] | – | 100 (1.31×) |
| < 1 | Cc1cc(OC[C@H](C)Nc2ccncc2)cc(C(=O)N(C(C)C)C(C)C)c1 [Example 2, N,N-Diisopropyl-3-methyl-5-[2S-(pyridin-4-ylamino)-propoxy]-benzamide] | 80 (1.5×) nM | – |

| SMILES | IC50 [1] [nM] | APTT: concentration of compound to extend the normal APTT by 1.5× [2] | APTT: degree of extension (ratio of clotting times in presence or absence of compound) [2] |
| --- | --- | --- | --- |
| CCN(C(=O)c1cc(C)cc(OC[C@H](C)Nc2ccncc2)c1)C(C)C [Example 1, N-Ethyl-N-isopropyl-3-methyl-5-[2S-(pyridin-4-ylamino)-propoxy]-benzamide] | < 1 | 40 (1.5×) nM | – |
| CCC(COc1cc(Cl)cc(C(=O)N(C(C)C)C(C)C)c1)Nc1ccncc1.Cl (stereo not shown) [Example 11, 3-Chloro-N,N-diisopropyl-5-[2-(pyridin-4-ylamino)-butoxy]-benzamide hydrochloride] | 26 | 650 (1.5×) nM | – |
